Target: T1, purified recombinant human IKKb (Homo sapiens, UniProt O14920)
T1 sequence (O14920 1-756): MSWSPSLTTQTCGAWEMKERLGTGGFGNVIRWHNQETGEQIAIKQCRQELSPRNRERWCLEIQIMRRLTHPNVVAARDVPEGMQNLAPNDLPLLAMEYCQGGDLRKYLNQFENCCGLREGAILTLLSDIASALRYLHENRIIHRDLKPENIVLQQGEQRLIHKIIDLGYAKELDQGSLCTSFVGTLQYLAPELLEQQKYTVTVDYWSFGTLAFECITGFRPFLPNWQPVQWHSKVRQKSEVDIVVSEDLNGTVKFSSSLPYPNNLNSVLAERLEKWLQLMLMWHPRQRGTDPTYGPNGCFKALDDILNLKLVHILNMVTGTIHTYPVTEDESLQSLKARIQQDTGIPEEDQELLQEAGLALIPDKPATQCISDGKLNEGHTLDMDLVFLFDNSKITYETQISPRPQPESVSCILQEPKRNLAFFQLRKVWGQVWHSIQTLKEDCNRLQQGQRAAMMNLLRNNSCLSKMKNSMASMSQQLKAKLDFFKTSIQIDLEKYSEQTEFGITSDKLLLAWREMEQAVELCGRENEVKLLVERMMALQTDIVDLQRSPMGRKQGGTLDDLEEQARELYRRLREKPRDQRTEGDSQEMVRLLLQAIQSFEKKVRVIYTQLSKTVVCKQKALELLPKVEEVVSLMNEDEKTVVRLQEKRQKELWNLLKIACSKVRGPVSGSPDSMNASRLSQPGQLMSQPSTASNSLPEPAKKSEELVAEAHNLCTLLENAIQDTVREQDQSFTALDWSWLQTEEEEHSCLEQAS
Assay: IKKb kinase assay, incorporation of radiolabeled 33P gATP into Biotin-peptide substrate derived from IkB-alpha
Format: biochemical
Details: recombinant human IKKb 25 nM, ATP 10 μM, peptide substrate 30 μM, 30 minutes at 30° C.
Protocol: This example describes an assay that is useful in evaluating and selecting a compound that modulates IKK. The assay measures the incorporation of radiolabeled ^33P gATP into the Biotin-peptide kinase substrate, derived from the IkB-alpha sequence.
In a 40 ul volume, 26 ul of ADB diluted, purified recombinant human IKKb [25 nM] was mixed with 4 ul 10× concentration of test compounds, [usually 100 uM–0.003 uM], [10%] DMSO and incubated for 10 minutes at room temperature. The kinase reaction was initiated by the addition of 10 ul 4× substrate cocktail containing the peptide substrate [0 or 30 μM] ATP [10 μM], and ^33PgATP [2uCi/rxn]. After 30 minutes of incubation at 30° C., the reaction was terminated by the transfer of 25 ul reaction sample to a phosphocellulose membrane/plate containing 150 ul 0.75% phosphoric acid.
On the following day, the free radionucleotides in the phosphocellulose membrane were washed under vacuum with 3×200 ul of 0.75% phosphoric acid. After the last wash membrane/plates were transferred to an adoptor plate and 70 ul of scintillation cocktail was added to each well. After four hours, the amount of radioactivity for each well was counted in a top counter.

IC50: < 1000 nM
Structure (SMILES): NC(=O)c1nnc(N)c2cc(-c3ccc(F)cc3)sc12 [Compound 3, 4-Amino-2-(4-fluoro-phenyl)-thieno[2,3-d]pyridazine-7-carboxylic acid amide]
